Measurements: article PMC6718988, “Bioactivity and Bactericidal Mechanism of Histidine-Rich β-Hairpin Peptide Against Gram-Negative Bacteria” (International Journal of Molecular Sciences, 2019)
Values after ≈ are worked out from the molar mass of the structure shown. Read-outs that look alike come from different tables or passages of the source. Where a SMILES comes first, the peptide text is derived from it. [ ]: non-standard residue; d: D form.

Legend:
Gram-negative bacteria = assay: MICs against Gram-negative strains (geometric mean, range); type: cell-based; conditions: Gram-negative strains; 256 μM used where no activity at 128 μM
Experimental: (§1) The minimum inhibitory concentration (MIC) was measured using a broth microdilution method to determine the in vitro antimicrobial activity of the peptides. Bacteria were inoculated into MHB and incubated overnight at 37 °C until the bacteria were in log phase growth. Next, we corrected the bacterial concentration to approximately 1 × 10^5 CFU/mL using MHB. The peptides were added to 96-well plates containing 0.01% acetic acid and 0.2% bovine serum albumin at final concentrations ranging from 0.25 to 128 μM. After incubation at 37 °C for 24 h, the absorbance was measured at 492 nm using a microplate reader (Tecan GENios F129004, Tecan, Austria). Broth containing microbes and […] were used as positive and negative controls, respectively. The lowest peptide concentration with no increase in absorbance compared to that of the negative control was defined as the MIC. The experiments were independently performed three times.

E. coli ATCC25922 [1] = assay: Swimming motility assay; type: cell-based; conditions: E. coli ATCC25922, 0.3% agar, 1–8 μM peptide, 37 °C, 20 h; versus untreated control
Experimental: The cell motility assay was performed on LB medium containing 0.3% agar. The peptides were added to 10 mL of medium at final concentrations of 1–8 μM. After mixing well, the mixtures were poured into 6-well plates and dried for 2 h. Subsequently, an overnight culture of E. coli ATCC 25922 was inoculated in the center of the movement plate. After incubation at 37 °C for 20 h, images were taken using a FluoroChemQ system (Cell biosciences, San Jose, CA, USA). The experiment was independently repeated three times.

[2] = system: Gram-positive and Gram-negative bacteria
Experimental: as §1

Gram-positive bacteria = system: Gram-positive bacteria
Experimental: as §1

[3] = RP-HPLC retention time as measure of hydrophobicity; type: physicochemical; conditions: analytical Kromasil C18 column 4.6 mm × 250 mm, 5.0 μm, acetonitrile, flow 1.0 mL/min, used as measure of hydrophobicity
Experimental: The hydrophobicities of the peptides in solution were reliably mirrored by their high-performance liquid chromatography (HPLC)retention times. The retention times for peptide HI2, HW2, HV2, HF2, and PG-1 were 11.13, 10.55, 12.20, 18.06 and 12.56 min, respectively, indicating the following hydrophobic order: HF2 > PG-1 > HV2 > HI2 > HW2(Table 1).
The designed peptides were synthesized and purified by GL Biochem (Shanghai, China). Acetonitrile was used on an analytical Kromasil C18 column (4.6 mm × 250 mm, 5.0 μm, LC 3000, Beijing, China), and the purity of the peptides was determined to be greater than 95% via reversed-phase high-performance liquid chromatography (RP-HPLC) with a flow rate of 1.0 mL/min. The experimental molecular weights of the peptides were evaluated via ESI-MS analysis, and these values were very close to the calculated masses. Next, the peptides were dissolved in deionized water at a concentration of 2.56 mM, and the peptide solutions were stored at −20 °C.

[4] = system: human red blood cells (hRBCs); assay: Hemolytic activity; conditions: 1 h, OD 570 nm; for hemolysis rate: at the highest concentration (128 μM), 1% hRBC in PBS, 37 °C, 0.1% Triton X-100 positive control; for MHC, minimum hemolytic concentration: concentration causing 5% hemolysis of hRBC, 1% hRBC in PBS pH 7.4, 37 °C, repeated three times
Experimental: Briefly, collected human red blood cells (hRBCs) were washed three times with PBS (pH 7.4) and diluted to 1% in PBS. Next, equal volumes of blood cells were mixed with different peptide concentrations in 96-well plates followed by incubated at 37 °C for 1 h. The mixtures were centrifuged (1000 g, 5 min), and the supernatants were transferred to 96-well plates to measure the optical density (OD) at 570 nm. Untreated blood cells were used as negative controls, and 0.1% Triton X-100-treated blood cells were used as positive controls. The minimum peptide concentration corresponding to 5% hemolytic activity was defined as the minimal hemolytic concentration (MHC). These assays were independently repeated three times.

E. coli ATCC25922 [5] = assay: SEM characterization of cell morphology; type: cell-based; conditions: E. coli ATCC25922, 1 × MIC (HV2 8 μM, PG-1 4 μM), 1 h
Experimental: For the SEM sample preparation, E. coli ATCC25922 cells were cultured at 37 °C to mid-log phase in MH broth with constant shaking at 220 rpm, centrifuged at 1000 g and then adjusted to an OD600 of 0.1–0.2 in PBS. […] Bacteria incubated with PBS served as controls. After the incubation, the mixture was centrifuged at 5000 g for 5 min, and the collected bacteria were washed three times with PBS. Approximately 2.5% (w/v) glutaraldehyde was added for fixation at 4 °C overnight, followed by washing three times with PBS. The samples were dehydrated with 50%, 70%, 90%, 100% ethanol for 10 min. A mixture of ethanol and tert-butanol was added to the dried bacterial cells for 30 min, and then t-butanol was added for 1 h. Finally, the samples were dehydrated and coated with liquid CO2 in a critical point dryer and then observed using a Hitachi S-4800 SEM (Hitachi, Tokyo, Japan).

S. epidermidis ATCC12228 = assay: microbe, parasite or virus in culture; conditions: S.epidermidis 12228; MHB, about 1 × 10^5 CFU/mL, 37 °C, 24 h; three independent experiments
Experimental: as §1

[6] = system: methicillin-resistant S. aureus ATCC43300; assay: microbe, parasite or virus in culture; conditions: S.aureus 43300 (methicillin-resistant); MHB, about 1 × 10^5 CFU/mL, 37 °C, 24 h; three independent experiments
Experimental: as §1

P. aeruginosa ATCC27853 = assay: microbe, parasite or virus in culture; conditions: P. auruginosa 27853; MHB, about 1 × 10^5 CFU/mL, 37 °C, 24 h; three independent experiments
Experimental: as §1

E. coli K88 = assay: microbe, parasite or virus in culture; conditions: E. coli K88; MHB, about 1 × 10^5 CFU/mL, 37 °C, 24 h; three independent experiments
Experimental: as §1

E. coli ATCC25922 [7] = assay: microbe, parasite or virus in culture
Experimental: as §1

S. aureus ATCC29213 = assay: microbe, parasite or virus in culture; conditions: S.aureus 29213; MHB, about 1 × 10^5 CFU/mL, 37 °C, 24 h; three independent experiments
Experimental: as §1

E. coli UB1005 = assay: microbe, parasite or virus in culture
Experimental: as §1

S. pullorum C7913 = assay: microbe, parasite or virus in culture
Experimental: as §1

E. coli K99 = assay: microbe, parasite or virus in culture; conditions: E. coli K99; MHB, about 1 × 10^5 CFU/mL, 37 °C, 24 h; three independent experiments
Experimental: as §1

E. coli ATCC25922 [8] = assay: Salt sensitivity assay (MIC in presence of physiological salts); type: cell-based; design: unit not given here
Experimental: Bacteria were inoculated into MHB and incubated overnight at 37 °C until the bacteria were in log phase growth. Next, we corrected the bacterial concentration to approximately 1 × 10^5 CFU/mL using MHB. […] After incubation at 37 °C for 24 h, the absorbance was measured at 492 nm using a microplate reader (Tecan GENios F129004, Tecan, Austria). Broth containing microbes and […] were used as positive and negative controls, respectively. The lowest peptide concentration with no increase in absorbance compared to that of the negative control was defined as the MIC. The experiments were independently performed three times. The effects of salt ions on the antibacterial activities of the antimicrobial peptides were evaluated. Different salt ion concentrations were added to BSA peptide dilutions, and the next steps followed the MIC measurement method. […] These tests were independently repeated three times.

[9] = LPS binding assay (BODIPY-TR-cadaverine displacement); design: species or system E. coli; conditions: peptide concentration higher than 4 μM; 50 μg/mL LPS, 5 μg/mL BODIPY-TR cadaverine, Tris 50 mM pH 7.4; 100% = 10 μg/mL polymyxin B
Experimental: The abilities of the antimicrobial peptides to bind LPS were determined using the fluorescent dye BODIPY-TR-cadaverine (BC) substitution method. LPS (50 μg/mL) from E. coli O111:B4 was incubated with BC (5 μg/mL) in Tris buffer (50 mm, pH 7.4) for 4 h. Next, 50 μL of various concentrations of peptides (final concentration of 1–64 μM) and 50 μL of LPS-BC mixture were added to 96-well plates, and the fluorescence was measured using a fluorescence spectrophotometer (Infinite 200 pro, Tecan, China) at an excitation wavelength of 580 nm and an emission wavelength of 620 nm. Each test was performed three times. The values were converted to %∆F (AU) using the following equation:%ΔF (AU) = [(Fobs − F0)/(F100 − F0)] × 100 where Fobs is the fluorescence value measured in the presence of the peptide, F0 is the initial fluorescence of LPS with BC without the addition of peptides, F100 is the fluorescence value produced by adding 10 μg/mL polymyxin B.

Which results are given for “RGGRLCYCRRFCVCVGR-NH2 [PG-1, Protegrin-1, reference compound]”?
MBC (GM), geometric mean of MICs, Gram (−) (Gram-negative bacteria): 3.17 µM; swimming motility (diameter of swimming bacteria) (E. coli ATCC25922 [1]): significantly reduced the diameter of the swimming bacteria; MBC (GM), geometric mean of MICs, Gram (+,−) ([2]; all strains, 256 μM used where no activity at 128 μM): 3.70 µM; MBC (GM), geometric mean of MICs, Gram (+) (Gram-positive bacteria; Gram-positive strains, 256 μM used where no activity at 128 μM): 5.04 µM; Retention Time [3]: 12.56 min; hemolysis rate [4]: 48.13%; MHC, minimum hemolytic concentration [4]: 4 µM; cell morphology by SEM (E. coli ATCC25922 [5]): rough and wrinkled; MIC (S. epidermidis ATCC12228): 8 µM; MIC [6]: 8 µM; MIC (P. aeruginosa ATCC27853): 8 µM; MIC (E. coli K88): 2 µM; MIC (E. coli ATCC25922 [7]; E. coli 25922, MHB, about 1 × 10^5 CFU/mL, 37 °C, 24 h, 0.25-128 μM, three independent experiments): 4 µM; MIC (S. aureus ATCC29213): 2 µM; MIC (E. coli UB1005; E. coli UB1005, MHB, about 1 × 10^5 CFU/mL, 37 °C, 24 h, three independent experiments): 2 µM; MIC (S. pullorum C7913; S.pullorum C7913, MHB, about 1 × 10^5 CFU/mL, 37 °C, 24 h, three independent experiments): 4 µM; MIC (E. coli K99): 2 µM; MIC, FeCl3 (E. coli ATCC25922 [8]; E. coli ATCC25922, 4 μM FeCl3, unit not given): 4; MIC, NH4Cl (E. coli ATCC25922 [8]; E. coli ATCC25922, 6 μM NH4Cl, unit not given): 4; MIC, ZnCl2 (E. coli ATCC25922 [8]; E. coli ATCC25922, 8 μM ZnCl2, unit not given): 2; MIC, MgCl2 (E. coli ATCC25922 [8]; E. coli ATCC25922, 1 mM MgCl2, unit not given): 4; MIC, KCl (E. coli ATCC25922 [8]; E. coli ATCC25922, 4.5 mM KCl, unit not given): 4; MIC, NaCl (E. coli ATCC25922 [8]; E. coli ATCC25922, 150 mM NaCl, unit not given): 4; MIC, Control (E. coli ATCC25922 [8]; E. coli ATCC25922, absence of physiological salts, no unit printed in Table 3 (Table 2 MIC in μM)): 4

Which “MBC (GM), geometric mean of MICs, Gram (−)” value (Gram-negative bacteria) does the source give for CC[C@H](C)[C@H](NC(=O)CNC(=O)[C@H]1CCCN1C(=O)[C@@H](NC(=O)[C@H](Cc1c[nH]cn1)NC(=O)[C@@H](NC(=O)[C@H](Cc1c[nH]cn1)NC(=O)[C@@H](NC(=O)[C@H](CCCNC(=N)N)NC(=O)[C@@H](N)CCCNC(=N)N)[C@@H](C)CC)[C@@H](C)CC)[C@@H](C)CC)C(=O)N[C@@H](Cc1c[nH]cn1)C(=O)N[C@H](C(=O)N[C@@H](Cc1c[nH]cn1)C(=O)N[C@H](C(=O)N[C@@H](CCCNC(=N)N)C(=O)N[C@@H](CCCNC(=N)N)C(N)=O)[C@@H](C)CC)[C@@H](C)CC [HI2] (H-RRIHIHI[dP]GIHIHIRR-NH2; N-terminus assumed) here?
Its value is 50.80 µM.

And the “MBC (GM), geometric mean of MICs, Gram (+,−)” value ([2]; 24 h)?
The value was 87.09 µM.

What about the “MBC (GM), geometric mean of MICs, Gram (+)” value (Gram-positive bacteria; 24 h) of the same compound?
Its value is 256 µM.

And the “Retention Time” value [3]?
Its value is 11.13 min.

And the hemolysis rate [4]?
Its hemolysis rate is 3.4%.

And the “MHC, minimum hemolytic concentration” value [4]?
Its value is >128 µM.

What about the “LPS binding ability relative to binding activity of polymyxin B” value [9] of the same compound?
The value was “higher than 60%”.

What about the MIC (S. epidermidis ATCC12228) of the same compound?
Its MIC is >128 µM.

And the MIC [6]?
The MIC was >128 µM.

And the MIC (P. aeruginosa ATCC27853)?
The MIC was >128 µM.

And the MIC (E. coli K88)?
Its MIC is 32 µM (≈ 64.8 µg/mL).

And the MIC (E. coli ATCC25922 [7]; ATCC25922, 24 h)?
The MIC was 32 µM (≈ 64.8 µg/mL).

And the MIC (S. aureus ATCC29213)?
Its MIC is >128 µM.

And the MIC (E. coli UB1005; UB1005, 24 h)?
Its MIC is 16 µM (≈ 32.4 µg/mL).

What about the MIC (S. pullorum C7913; C7913, 24 h) of the same compound?
The MIC was 16 µM (≈ 32.4 µg/mL).

And the MIC (E. coli K99)?
Its MIC is >128 µM.
